target: T1, PD-1/PD-L1 (Homo sapiens, UniProt Q9NZQ7); test: PD-1/PD-L1 Homogenous Time-Resolved Fluorescence (HTRF) binding assay; conditions: PD-L1-His 10 nM, PD-1-Ig 20 nM; numeric IC50; read-out: Range or IC50
T1 construct: made in house; host or cells: HEK293T
Experimental: The ability of the compounds of formula (I) to bind to PD-L1 was investigated using a PD-1/PD-L1 Homogenous Time-Resolved Fluorescence (HTRF) binding assay.
Homogenous Time-Resolved Fluorescence (HTRF) Binding Assay.
All binding studies were performed in an HTRF assay buffer consisting of dPBS supplemented with 0.1% […] bovine serum albumin and 0.05% (v/v) Tween-20. […] HTRF detection was achieved using europium crypate-labeled anti-Ig (1 nM final) and allophycocyanin (APC) labeled anti-His (20 nM final). Antibodies were diluted in HTRF detection buffer and 5 μl was dispensed on top of the binding reaction. […] Additional binding assays were established between the human proteins PD-1-Ig/PD-L2-His (20 & 5 nM, respectively) and CD80-His/PD-L1-Ig (100 & 10 nM, respectively). […]

T1 sequence (Q9NZQ7 with tags, fused parts or gaps): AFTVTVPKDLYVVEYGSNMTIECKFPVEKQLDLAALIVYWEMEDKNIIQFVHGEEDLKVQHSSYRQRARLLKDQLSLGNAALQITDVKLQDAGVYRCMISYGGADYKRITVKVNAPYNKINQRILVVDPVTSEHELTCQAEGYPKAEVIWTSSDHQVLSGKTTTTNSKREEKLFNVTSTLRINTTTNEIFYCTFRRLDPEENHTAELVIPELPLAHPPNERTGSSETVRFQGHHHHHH

| SMILES | IC50 |
| --- | --- |
| Cc1c(COc2cc(OCc3cncc(C#N)c3)c(CN3CCCC[C@H]3C(=O)O)cc2Cl)cccc1-c1cccc(OCC(O)CO)c1Cl (stereo partly drawn) [Example 2083, (2S)-1-(5-chloro-4-((2′-chloro-3′-(2,3-dihydroxypropoxy)-2-methyl-[1,1′-biphenyl]-3-yl)methoxy)-2-((5-cyanopyridin-3-yl)methoxy)benzyl)piperidine-2-carboxylic Acid] | 4 nM |
| Cc1c(COc2cc(OCc3cncc(C#N)c3)c(CN3CCCC[C@H]3C(=O)O)cc2Cl)cccc1-c1cccc(OCC(=O)N2CC[C@@H](O)C2)c1 [Example 1007, (S)-1-(5-chloro-2-((5-cyanopyridin-3-yl)methoxy)-4-((3′-(2-((R)-3-hydroxypyrrolidin-1-yl)-2-oxoethoxy)-2-methyl-[1,1′-biphenyl]-3-yl)methoxy)benzyl)piperidine-2-carboxylic Acid] | 26 nM |

same assay, conditions: PD-L1-His 10 nM, PD-1-Ig 20 nM; value given as range class; read-out: Range or IC50

| SMILES | IC50 |
| --- | --- |
| COC(=O)C1(O)CCN(CCCOc2cccc(-c3cccc(COc4cc(OCc5cncc(S(C)(=O)=O)c5)c(CN[C@](C)(CO)C(=O)O)cc4Cl)c3C)c2C)C1 (stereo partly drawn) [Example 1055, (2R)-2-((5-chloro-4-((3′-(3-(3-hydroxy-3-(methoxycarbonyl)pyrrolidin-1-yl)propoxy)-2,2′-dimethyl-[1,1′-biphenyl]-3-yl)methoxy)-2-((5-(methylsulfonyl)pyridin-3-yl)methoxy)benzyl)amino)-3-hydroxy-2-methylpropanoic Acid] | 0.21 to 10 nM |
| Cc1c(OCCCN2CCCCC2)cccc1-c1cccc(COc2cc(OCc3cncc(C#N)c3)c(CN3CCCC[C@H]3C(=O)O)cc2Cl)c1Cl [Example 2306, (S)-1-(5-chloro-4-((2-chloro-2′-methyl-3′-(3-(piperidin-1-yl)propoxy)-[1,1′-biphenyl]-3-yl)methoxy)-2-((5-cyanopyridin-3-yl)methoxy)benzyl)piperidine-2-carboxylic Acid] | 0.21 to 10 nM |
| Cc1c(OCCCN2CCS(=O)(=O)CC2)cccc1-c1cccc(COc2cc(OCc3cncc(C#N)c3)c(CN3CCCC[C@H]3C(=O)O)cc2Cl)c1Cl [Example 2310, (S)-1-(5-chloro-4-((2-chloro-3′-(3-(1,1-dioxidothiomorpholino)propoxy)-2′-methyl-[1,1′-biphenyl]-3-yl)methoxy)-2-((5-cyanopyridin-3-yl)methoxy)benzyl)piperidine-2-carboxylic Acid] | 0.21 to 10 nM |
| Cc1c(COc2cc(OCc3cncc(S(C)(=O)=O)c3)c(CNC(C)(CO)CO)cc2Cl)cccc1-c1cccc(OCCCN2CC[C@@H](O)C2)c1Cl [Example 1532, (R)-2-((5-chloro-4-((2′-chloro-3′-(3-(3-hydroxypyrrolidin-1-yl)propoxy)-2-methyl-[1,1′-biphenyl]-3-yl)methoxy)-2-((5-(methylsulfonyl)pyridin-3-yl)methoxy)benzyl)amino)-2-methylpropane-1,3-diol] | 0.21 to 10 nM |
| CCOC(=O)C1(CO)CCN(CCCOc2cccc(-c3cccc(COc4cc(OCc5cncc(C#N)c5)c(CN5CCC(CO)(C(=O)OCC)C5)cc4Cl)c3C)c2Cl)C1 (stereo not shown) [Example 1104, ethyl 1-(3-((2-chloro-3′-((2-chloro-5-((5-cyanopyridin-3-yl)methoxy)-4-((3-(ethoxycarbonyl)-3-(hydroxymethyl)pyrrolidin-1-yl)methyl)phenoxy)methyl)-2′-methyl-[1,1′-biphenyl]-3-yl)oxy)propyl)-3-(hydroxymethyl)pyrrolidine-3-carboxylate] | 10 to 100 nM |
| Cc1c(COc2cc(OCc3cncc(C#N)c3)c(CN[C@](C)(CO)C(=O)O)cc2Cl)cccc1-c1cccc(OCCCN2CCC(CO)(C(=O)O)CC2)c1C [Example 1112, (R)-1-(3-((3′-((4-(((2-carboxy-1-hydroxypropan-2-yl)amino)methyl)-2-chloro-5-((5-cyanopyridin-3-yl)methoxy)phenoxy)methyl)-2,2′-dimethyl-[1,1′-biphenyl]-3-yl)oxy)propyl)-4-(hydroxymethyl)piperidine-4-carboxylic Acid] | 0.21 to 10 nM |
| Cc1c(COc2cc(OCc3cncc(C#N)c3)c(CN(C)C[C@H](O)CO)cc2Cl)cccc1-c1cccc(OCCCN(C)C[C@H](O)CO)c1C [Example 2271, 5-((4-chloro-2-((((S)-2,3-dihydroxypropyl)(methyl)amino)methyl)-5-((3′-(3-(((S)-2,3-dihydroxypropyl)(methyl)amino)propoxy)-2,2′-dimethylbiphenyl-3-yl)methoxy)phenoxy)methyl)nicotinonitrile] | 0.21 to 10 nM |
| Cc1c(COc2cc(OCc3cncc(C#N)c3)c(CN(C)C(CO)CO)cc2Cl)cccc1-c1cccc(OCCCNC[C@H](O)CO)c1Cl [Example 2057, (S)-5-((4-chloro-5-((2′-chloro-3′-(3-((2,3-dihydroxypropyl)amino)propoxy)-2-methyl-[1,1′-biphenyl]-3-yl)methoxy)-2-(((1,3-dihydroxypropan-2-yl)(methyl)amino)methyl)phenoxy)methyl)nicotinonitrile] | 0.21 to 10 nM |
| CC(=O)N[C@H]1CCN(CCCOc2cccc(-c3cccc(COc4cc(OCc5cncc(C#N)c5)c(CNC(CO)CO)cc4Cl)c3C)c2Cl)C1 [Example 2069, (S)—N-(1-(3-((2-chloro-3′-((2-chloro-5-((5-cyanopyridin-3-yl)methoxy)-4-(((1,3-dihydroxypropan-2-yl)amino)methyl)phenoxy)methyl)-2′-methyl-[1,1′-biphenyl]-3-yl)oxy)propyl)pyrrolidin-3-yl)acetamide] | 0.21 to 10 nM |
| Cc1c(COc2cc(OCc3cncc(C#N)c3)c(CN[C@@](C)(CO)C(=O)O)cc2Cl)cccc1-c1cccc(OCCCN2CCCC(CO)C2)c1C (stereo partly drawn) [Example 2260, (2S)-2-(5-chloro-2-((5-cyanopyridin-3-yl)methoxy)-4-((3′-(3-(3-(hydroxymethyl)piperidin-1-yl)propoxy)-2,2′-dimethylbiphenyl-3-yl)methoxy)benzylamino)-3-hydroxy-2-methylpropanoic Acid] | 0.21 to 10 nM |
| Cc1c(COc2cc(OCc3cncc(C#N)c3)c(CN[C@](C)(CO)C(=O)O)cc2Cl)cccc1-c1cccc(OCCCN2CCC(CO)(C(=O)O)C2)c1Cl (stereo partly drawn) [Example 1108, 1-(3-((3′-((4-((((R)-2-carboxy-1-hydroxypropan-2-yl)amino)methyl)-2-chloro-5-((5-cyanopyridin-3-yl)methoxy)phenoxy)methyl)-2-chloro-2′-methyl-[1,1′-biphenyl]-3-yl)oxy)propyl)-3-(hydroxymethyl)pyrrolidine-3-carboxylic Acid] | 0.21 to 10 nM |
| Cc1c(COc2cc(OCc3cncc(C#N)c3)c(CN3CC[C@H](CO)[C@H](O)C3)cc2Cl)cccc1-c1cccc(OCCCN2CC[C@H](CO)[C@H](O)C2)c1C [Example 2257, 5-((4-chloro-2-(((3S,4R)-3-hydroxy-4-(hydroxymethyl)piperidin-1-yl)methyl)-5-((3′-(3-((3S,4R)-3-hydroxy-4-(hydroxymethyl)piperidin-1-yl)propoxy)-2,2′-dimethylbiphenyl-3-yl)methoxy)phenoxy)methyl)nicotinonitrile] | 0.21 to 10 nM |
| Cc1c(COc2cc(OCc3cccc(C#N)c3)c(CN3CCCC[C@H]3C(=O)O)cc2Cl)cccc1-c1cccc(OCCCN2[C@@H]3CC[C@H]2COC3)c1C [Example 3055, (S)-1-(4-((3′-(3-((1R,5S)-3-oxa-8-azabicyclo[3.2.1]octan-8-yl)propoxy)-2,2′-dimethyl-[1,1′-biphenyl]-3-yl)methoxy)-5-chloro-2-((3-cyanobenzyl)oxy)benzyl)piperidine-2-carboxylic Acid] | 0.21 to 10 nM |
| Cc1c(COc2cc(OCc3cncc(C#N)c3)c(CN[C@@](C)(CO)C(=O)O)cc2Cl)cccc1-c1cccc(OCCCNC[C@H](O)CO)c1C [Example 2286, (S)-2-((5-chloro-2-((5-cyanopyridin-3-yl)methoxy)-4-((3′-(3-(((S)-2,3-dihydroxypropyl)amino)propoxy)-2,2′-dimethyl-[1,1′-biphenyl]-3-yl)methoxy)benzyl)amino)-3-hydroxy-2-methylpropanoic Acid] | 0.21 to 10 nM |
| Cc1c(COc2cc(OCc3cncc(C#N)c3)c(CNC(CO)CO)cc2Cl)cccc1-c1cccc(OCCCN2CCC[C@@H](CO)C2)c1C [Example 2292, (R)-5-((4-chloro-2-(((1,3-dihydroxypropan-2-yl)amino)methyl)-5-((3′-(3-(3-(hydroxymethyl)piperidin-1-yl)propoxy)-2,2′-dimethyl-[1,1′-biphenyl]-3-yl)methoxy)phenoxy)methyl)nicotinonitrile] | 0.21 to 10 nM |
| Cc1c(COc2cc(OCc3cncc(C#N)c3)c(CN[C@](C)(CO)C(=O)O)cc2Cl)cccc1-c1cccc(OCCCNC(CO)(CO)CO)c1Cl [Example 2040, (R)-2-((5-chloro-4-((2′-chloro-3′-(3-((1,3-dihydroxy-2-(hydroxymethyl)propan-2-yl)amino)propoxy)-2-methyl-[1,1′-biphenyl]-3-yl)methoxy)-2-((5-cyanopyridin-3-yl)methoxy)benzyl)amino)-3-hydroxy-2-methylpropanoic Acid] | 0.21 to 10 nM |
| COc1cc(NC(=O)c2cccc(-c3cccc(OCCCN4CC[C@@H](O)C4)c3C)c2C)c(Cl)cc1C(=O)N1CCCC[C@H]1C(=O)O [Example 4519, (S)-1-(5-chloro-4-(3′-(3-((R)-3-hydroxypyrrolidin-1-yl)propoxy)-2,2′-dimethyl-[1,1′-biphenyl]-3-ylcarboxamido)-2-methoxybenzoyl)piperidine-2-carboxylic Acid] | 100 to 2000 nM |
